The text below walks through data of BindingDB's records for doi:10.1111/j.1747-0285.2009.00881.x (University of Notre Dame, 2009).

Where only a bound is given, the exact number is not on record here.

Chain of 72 kDa type IV collagenase (P08253 whole entry): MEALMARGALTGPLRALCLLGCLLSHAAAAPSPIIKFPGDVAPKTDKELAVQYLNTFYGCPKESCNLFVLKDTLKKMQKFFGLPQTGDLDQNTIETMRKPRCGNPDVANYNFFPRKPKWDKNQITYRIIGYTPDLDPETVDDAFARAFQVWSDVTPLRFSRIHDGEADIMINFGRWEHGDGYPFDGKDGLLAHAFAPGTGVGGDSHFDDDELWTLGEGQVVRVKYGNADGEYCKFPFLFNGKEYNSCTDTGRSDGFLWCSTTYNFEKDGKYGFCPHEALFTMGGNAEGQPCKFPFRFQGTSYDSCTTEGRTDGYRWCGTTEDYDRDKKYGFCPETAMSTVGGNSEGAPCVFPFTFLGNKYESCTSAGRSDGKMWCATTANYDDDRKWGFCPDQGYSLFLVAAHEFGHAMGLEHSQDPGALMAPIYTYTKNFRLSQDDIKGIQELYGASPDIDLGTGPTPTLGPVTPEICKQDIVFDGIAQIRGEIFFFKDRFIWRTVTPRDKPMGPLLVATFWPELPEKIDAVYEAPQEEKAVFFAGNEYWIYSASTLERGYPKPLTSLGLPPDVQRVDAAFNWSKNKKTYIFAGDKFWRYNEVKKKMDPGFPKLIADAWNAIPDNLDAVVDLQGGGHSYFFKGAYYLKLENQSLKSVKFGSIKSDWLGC

The target of the experiment is 72 kDa type IV collagenase (Homo sapiens, UniProt P08253). Briefly: Inhibition Assay. An excerpt:
Inhibition assay using matrix metalloproteinase (MMP-2).
On to `CC(C)(C1CS1)S(=O)(=O)c1ccc(Oc2ccccc2)cc1` (stereo not drawn) [Alpha, alpha-dimethyl derivative, 5], for which the Ki (commonly the dissociation constant of the complex between target and ligand, obtained from inhibition or displacement) is greater than 40 µM.
Turning to `CC1(C)SC1CS(=O)(=O)c1ccc(Oc2ccccc2)cc1` (centres undefined) [Gama, gama-dimethyl derivative, 6], the Ki amounted to 1.4 µM.
As for `[O-][S+](CC1CS1)c1ccc(Oc2ccccc2)cc1` (centres undefined) [Sulfoxide, 4], the affinity corresponds to a Ki of 2.1 µM.
In turn, `O=S(=O)(/C=C/CS)c1ccc(Oc2ccccc2)cc1` [Vinylsulfone, 7] gave a Ki of 0.00053 µM.
